Data on 25 compounds can be found in ChEMBL document CHEMBL3994566 (Medchemcomm, 2016).

Data set [1] relates to CCR5. As to the kind of experiment: Selectivity index, ratio of CC50 for human TZM-bl cells to EC50 for CCR5 in human TZM-bl cells infected with CCR5-tropic HIV-1 Bal assessed as inhibition of viral entry. Format: toxicity, cell-based. The settings on record: read-out: Ratio CC50/EC50.
Data set [2] can be described thus: Binding affinity to HIV1 integrase by surface plasma resonance method. Further details: species or system Human immunodeficiency virus.
In data set [3] the test system is TZM. As to the kind of experiment: Cytotoxicity against human TZM-bl cells after 3 days by XTT assay. It counts as cell-based. The settings on record: 72 h.

Regarding `CC(=O)Oc1ccc(/C=C/C(=O)CCc2ccc(NC(=O)c3ccc(C)cc3)cc2)cc1OC(C)=O`, the selectivity ratio in data set [1] came out at 2.
Still for that read-out and setting: to `CC(=O)Oc1ccc(CCC(=O)CCc2ccc(NC(=O)c3ccc([N+](=O)[O-])cc3)cc2)cc1OC(C)=O` belongs 15.
Same read-out and setting: under `Cc1ccc(C(=O)Nc2ccc(CCC(=O)/C=C/c3ccc(O)c(O)c3)cc2)cc1` stands under 1; under `Cc1ccc(C(=O)Nc2ccc(CCC(=O)CCc3ccc(O)c(O)c3)cc2)cc1`, 5; under `COc1ccc(C(=O)Nc2ccc(CCC(=O)CCc3ccc(OC(C)=O)c(OC(C)=O)c3)cc2)cc1`, 21.
Same read-out and setting: to `CC(=O)Oc1ccc(/C=C/C(=O)CCc2ccc(NC(=O)c3ccc([N+](=O)[O-])cc3)cc2)cc1OC(C)=O` belongs 5.
`O=C(/C=C/c1ccc(O)c(O)c1)CCc1ccc(NC(=O)C2CCCCC2)cc1` gave a Kd in data set [2] of 89.8 µM. Also, the selectivity ratio in data set [1] was under 3.
As to `O=C(CCc1ccc(NC(=O)Cc2cccs2)cc1)CCc1ccc(O)c(O)c1`, the selectivity ratio in data set [1] was 8.
Turning to `O=C(CCc1ccc(NC(=O)c2ccccc2)cc1)CCc1ccc(O)c(O)c1`, the affinity in data set [2], expressed as Kd, was 110 µM. Moreover, in data set [1], the selectivity ratio was 26.
For the compound `O=C(/C=C/c1ccc(O)c(O)c1)CCc1ccc(NC(=O)Cc2cccs2)cc1`, the Kd in data set [2] was determined as 61.3 µM. The selectivity ratio in data set [1] was under 2.
As for `COc1ccc(C(=O)Nc2ccc(CCC(=O)/C=C/c3ccc(OC(C)=O)c(OC(C)=O)c3)cc2)cc1`, the selectivity ratio in data set [1] was 12.
As for `O=C(/C=C/c1ccc(O)c(O)c1)CCc1ccc(NC(=O)c2ccc([N+](=O)[O-])cc2)cc1`, the selectivity ratio in data set [1] is under 1.
`O=C(CCc1ccc(NC(=O)C2CCCCC2)cc1)CCc1ccc(O)c(O)c1` yielded a Kd in data set [2] of 80.9 µM. Besides, in data set [1], the selectivity ratio came to 10.
Turning to `CC(=O)Oc1ccc(CCC(=O)CCc2ccc(NC(=O)C3CCCCC3)cc2)cc1OC(C)=O`, the selectivity ratio in data set [1] was determined as 14.
On to `CC(=O)Oc1ccc(CCC(=O)CCc2ccc(NC(=O)c3ccc(C)cc3)cc2)cc1OC(C)=O`, for which the selectivity ratio in data set [1] was 9.
As to `CC(=O)Oc1ccc(/C=C/C(=O)CCc2ccc(NC(=O)C3CCCCC3)cc2)cc1OC(C)=O`, the selectivity ratio in data set [1] was determined as 5.
Consider `COc1ccc(C(=O)Nc2ccc(CCC(=O)CCc3ccc(O)c(O)c3)cc2)cc1`, for which the selectivity ratio in data set [1] is under 5.
`CC(=O)Oc1ccc(CCC(=O)CCc2ccc(NC(=O)c3ccccc3)cc2)cc1OC(C)=O` had a Kd in data set [2] of 2.4 µM. The Activity result in data set [3] is “Non-Toxic”. In addition, the selectivity ratio in data set [1] worked out at 110.
In data set [2], `O=C(/C=C/c1ccc(O)c(O)c1)CCc1ccc(NC(=O)c2ccccc2)cc1` gave a Kd of 164 µM. In addition, the selectivity ratio in data set [1] was under 1.
In the case of `CC(=O)Oc1ccc(CCC(=O)CCc2ccc(NC(=O)Cc3cccs3)cc2)cc1OC(C)=O`, the selectivity ratio in data set [1] amounted to 17.
With `COc1ccc(C(=O)Nc2ccc(CCC(=O)/C=C/c3ccc(O)c(O)c3)cc2)cc1`, the Kd in data set [2] is 43.2 µM. In addition, in data set [1], the selectivity ratio worked out at 7.
On to `CC(=O)Oc1ccc(/C=C/C(=O)CCc2ccc(NC(=O)c3ccccc3)cc2)cc1OC(C)=O`, for which, in data set [1], the selectivity ratio was under 5.
On the same count and under the same terms, under `CC(=O)Oc1ccc(/C=C/C(=O)CCc2ccc(NC(=O)Cc3cccs3)cc2)cc1OC(C)=O` stands under 1; under `O=C(CCc1ccc(NC(=O)c2ccc([N+](=O)[O-])cc2)cc1)CCc1ccc(O)c(O)c1`, 6; under `Cc1nnc(C(C)C)n1[C@@H]1C[C@H]2CC[C@@H](C1)N2CC[C@H](NC(=O)C1CCC(F)(F)CC1)c1ccccc1` [MARAVIROC], over 1e+06.

Broadly, the Kd is a measure of binding affinity in units of concentration. Low values mean tighter binding, high ones weaker binding.
